Reference: ChEMBL document CHEMBL2177072, “Design and synthesis of β-site amyloid precursor protein cleaving enzyme (BACE1) inhibitors with in vivo brain reduction of β-amyloid peptides” (J Med Chem, 2012)
Activity calls are given as the source filed them. The calls are words filed in the database; no cut-off is given here.

Key:
Beta-secretase 1 [1] = molecular target: T1, Beta-secretase 1 (Homo sapiens, UniProt P56817); type: cell-based, SH-SY5Y
Beta-secretase 1 [2] = molecular target: T1, Beta-secretase 1
Beta-secretase 2 = molecular target: T2, Beta-secretase 2 (Homo sapiens, UniProt Q9Y5Z0)
T2 sequence (Q9Y5Z0 whole entry): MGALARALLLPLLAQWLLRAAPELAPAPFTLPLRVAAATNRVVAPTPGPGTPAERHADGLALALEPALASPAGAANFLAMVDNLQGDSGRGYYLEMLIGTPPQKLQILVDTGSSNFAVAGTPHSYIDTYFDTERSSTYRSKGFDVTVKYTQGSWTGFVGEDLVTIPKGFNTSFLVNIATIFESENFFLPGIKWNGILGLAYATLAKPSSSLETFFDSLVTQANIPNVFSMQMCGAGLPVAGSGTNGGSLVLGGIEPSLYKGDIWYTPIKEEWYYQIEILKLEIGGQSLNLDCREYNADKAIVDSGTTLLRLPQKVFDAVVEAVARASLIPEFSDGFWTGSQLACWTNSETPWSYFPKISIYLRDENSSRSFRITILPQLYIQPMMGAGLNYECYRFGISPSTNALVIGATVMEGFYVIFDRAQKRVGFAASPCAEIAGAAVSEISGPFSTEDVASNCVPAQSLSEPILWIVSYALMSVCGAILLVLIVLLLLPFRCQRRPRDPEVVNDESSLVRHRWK

Beta-secretase 1 [3] = molecular target: Beta-secretase 1 (Mus musculus, UniProt P56818)
Description: Inhibition of BACE1-mediated amyloid beta 40 release in C57/BL6 mouse primary cortical neurons after overnight incubation by ELISA

Brain [4] = assay: Free drug concentration in C57BL/6 mouse brain at 300 umol/kg, po at […]; type: ADME, organism-based; settings: in vivo
Plasma [5] = assay: Free drug concentration in C57BL/6 mouse plasma at 300 umol/kg, po at […]; type: ADME, organism-based; settings: in vivo
Mus musculus [6] = species on record: Mus musculus; assay: Antialzheimer activity in C57BL/6 mouse assessed as unbound brain concentration required for 20% reduction in amyloid beta 40 level in brain at 1.5 by ELISA; type: functional
Mus musculus [7] = assay: Antialzheimer activity in C57BL/6 mouse assessed as reduction in sAPPbeta level in brain at 300 umol/kg, po; type: functional, organism-based
Mus musculus [8] = assay: Antialzheimer activity in C57BL/6 mouse assessed as reduction in amyloid beta 42 level in brain at 300 umol/kg, po; type: functional, organism-based
[9] = Fraction unbound in C57BL/6 mouse brain at 300 umol/kg, po; type: ADME, organism-based
[10] = Fraction unbound in C57BL/6 mouse plasma at 300 umol/kg, po; type: ADME, organism-based
Mus musculus [11] = assay: Antialzheimer activity in C57BL/6 mouse assessed as reduction in amyloid beta 40 level in brain at 300 umol/kg, po at […] by ELISA relative to control; type: functional; design: scale not given: the % may be the effect or the level left
physchem [12] = assay: physchem
Description: Lipophilicity, log D of the compound by RP-HPLC analysis

in vitro [13] = settings: rat, hepatocytes
in vitro [14] = settings: human, Caco-2
Description: Apparent permeability from apical to basal side of human Caco2 cells at 10 uM after 60 mins by LC/MS analysis

physchem [15] = assay: physchem; remark: listed apart in the source
[16] = molecular target: Voltage-gated inwardly rectifying potassium channel KCNH2 (Homo sapiens, UniProt Q12809)
Description: Inhibition of human ERG expressed in CHO cells by IonWorks assay

in vitro [17] = settings: human, Caco-2; remark: listed apart in the source
Description: Efflux ratio of apparent permeability from basal to apical to apical to basal side of human Caco2 cells at 10 uM after 60 mins by LC/MS analysis

[18] = Ratio of free drug concentration in brain to free drug concentration in plasma in C57BL/6 mouse at 80 umol/kg, po at […]; type: ADME, organism-based
Brain [19] = assay: Free drug concentration in C57BL/6 mouse brain at 80 umol/kg, po at […]; type: ADME, organism-based; settings: in vivo
Plasma [20] = assay: Free drug concentration in C57BL/6 mouse plasma at 80 umol/kg, po at […]; type: ADME, organism-based; settings: in vivo
Mus musculus [21] = assay: Antialzheimer activity in C57BL/6 mouse assessed as reduction in sAPPbeta level in brain at 80 umol/kg, po; type: functional, organism-based
Mus musculus [22] = assay: Antialzheimer activity in C57BL/6 mouse assessed as reduction in amyloid beta 42 level in brain at 80 umol/kg, po; type: functional, organism-based
[23] = Fraction unbound in C57BL/6 mouse brain at 80 umol/kg, po; type: ADME, organism-based
[24] = Fraction unbound in C57BL/6 mouse plasma at 80 umol/kg, po; type: ADME, organism-based
Mus musculus [25] = assay: Antialzheimer activity in C57BL/6 mouse assessed as reduction in amyloid beta 40 level in brain at 80 umol/kg, po at […] by ELISA relative to control; type: functional; design: scale not given: the % may be the effect or the level left
in vivo [26] = settings: mouse, po
Description: Half life in po dosed mouse

in vivo [27] = settings: mouse, po; remark: listed apart in the source
Description: Oral bioavailability in mouse

Beta-secretase 1 (Mus musculus, UniProt P56818), sequence (P56818 whole entry): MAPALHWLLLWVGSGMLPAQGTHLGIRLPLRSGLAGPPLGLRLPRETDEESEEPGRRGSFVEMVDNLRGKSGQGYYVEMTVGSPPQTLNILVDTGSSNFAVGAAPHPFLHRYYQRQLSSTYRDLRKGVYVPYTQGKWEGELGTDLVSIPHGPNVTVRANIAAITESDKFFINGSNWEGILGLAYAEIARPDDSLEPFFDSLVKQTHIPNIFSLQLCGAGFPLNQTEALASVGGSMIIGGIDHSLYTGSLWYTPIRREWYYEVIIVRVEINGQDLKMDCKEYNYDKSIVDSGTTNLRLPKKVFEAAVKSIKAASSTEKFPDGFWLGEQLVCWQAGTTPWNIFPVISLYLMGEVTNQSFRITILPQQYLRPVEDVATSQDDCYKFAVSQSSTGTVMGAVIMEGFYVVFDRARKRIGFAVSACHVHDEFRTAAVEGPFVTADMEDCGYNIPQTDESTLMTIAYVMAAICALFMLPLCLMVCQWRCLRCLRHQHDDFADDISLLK
T1 sequence (P56817 whole entry): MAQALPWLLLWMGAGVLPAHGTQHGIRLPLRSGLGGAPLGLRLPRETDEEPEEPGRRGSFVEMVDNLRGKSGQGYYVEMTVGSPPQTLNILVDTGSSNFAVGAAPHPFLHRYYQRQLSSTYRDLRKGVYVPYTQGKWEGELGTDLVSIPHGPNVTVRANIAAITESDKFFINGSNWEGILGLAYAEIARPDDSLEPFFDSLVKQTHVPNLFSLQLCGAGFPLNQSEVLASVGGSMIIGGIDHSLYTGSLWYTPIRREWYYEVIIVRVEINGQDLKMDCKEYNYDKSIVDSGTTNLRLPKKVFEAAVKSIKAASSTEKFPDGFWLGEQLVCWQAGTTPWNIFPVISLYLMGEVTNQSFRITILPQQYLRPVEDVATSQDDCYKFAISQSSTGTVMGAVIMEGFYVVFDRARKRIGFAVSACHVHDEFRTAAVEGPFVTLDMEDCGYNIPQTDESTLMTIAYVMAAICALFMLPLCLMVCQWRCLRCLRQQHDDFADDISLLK
Voltage-gated inwardly rectifying potassium channel KCNH2, sequence (Q12809 whole entry): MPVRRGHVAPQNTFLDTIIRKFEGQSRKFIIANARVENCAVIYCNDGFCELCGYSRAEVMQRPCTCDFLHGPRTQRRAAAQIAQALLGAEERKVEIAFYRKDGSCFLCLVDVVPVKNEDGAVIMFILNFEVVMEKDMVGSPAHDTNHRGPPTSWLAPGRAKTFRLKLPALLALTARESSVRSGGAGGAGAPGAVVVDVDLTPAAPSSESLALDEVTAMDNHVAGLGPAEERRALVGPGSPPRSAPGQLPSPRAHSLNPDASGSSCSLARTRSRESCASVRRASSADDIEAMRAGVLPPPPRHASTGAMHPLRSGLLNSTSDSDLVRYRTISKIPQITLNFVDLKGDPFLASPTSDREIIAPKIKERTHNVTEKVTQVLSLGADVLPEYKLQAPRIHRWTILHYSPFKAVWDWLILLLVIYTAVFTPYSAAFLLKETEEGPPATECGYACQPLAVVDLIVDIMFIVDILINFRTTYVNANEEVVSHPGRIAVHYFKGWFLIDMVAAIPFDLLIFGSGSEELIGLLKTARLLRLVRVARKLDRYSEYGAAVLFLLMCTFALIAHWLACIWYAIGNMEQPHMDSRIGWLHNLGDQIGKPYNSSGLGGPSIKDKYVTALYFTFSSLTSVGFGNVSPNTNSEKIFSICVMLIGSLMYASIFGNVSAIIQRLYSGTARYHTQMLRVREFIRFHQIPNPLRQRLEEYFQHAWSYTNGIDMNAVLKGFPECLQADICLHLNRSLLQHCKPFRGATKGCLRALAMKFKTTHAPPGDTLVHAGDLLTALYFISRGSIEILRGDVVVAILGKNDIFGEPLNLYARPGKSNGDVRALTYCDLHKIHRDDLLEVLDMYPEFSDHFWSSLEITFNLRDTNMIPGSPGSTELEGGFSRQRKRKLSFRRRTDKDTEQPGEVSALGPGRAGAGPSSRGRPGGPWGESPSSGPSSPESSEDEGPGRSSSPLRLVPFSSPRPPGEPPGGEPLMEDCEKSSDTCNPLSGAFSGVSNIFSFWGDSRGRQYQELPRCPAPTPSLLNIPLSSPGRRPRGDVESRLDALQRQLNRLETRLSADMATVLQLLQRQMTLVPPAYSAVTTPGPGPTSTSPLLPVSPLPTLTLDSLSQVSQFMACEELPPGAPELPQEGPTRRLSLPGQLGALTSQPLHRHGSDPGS

CC#Cc1cncc(-c2cccc([C@@]3(c4cc(C)c(=O)n(CC)c4)N=C(N)c4c(F)cc(F)cc43)c2)c1
IC50 (Beta-secretase 1 [1]): 0.38 nM | IC50 (Beta-secretase 1 [2]): 2.59 nM

COc1ccc(C2(c3cccc(-c4cncnc4)c3)N=C(N)c3c(F)cccc32)cc1 (stereo not given)
IC50 (Beta-secretase 1 [1]): 12.5 nM | IC50 (Beta-secretase 1 [2]): 135 nM

NC1=NC(c2cccc(-c3cncnc3)c2)(c2ccnc(C(F)(F)F)c2)c2ccccc21 (stereo not given)
IC50 (Beta-secretase 1 [1]): 2.1 nM | IC50 (Beta-secretase 1 [2]): 134 nM

CCn1cc(C2(c3cccc(-c4cncc(C#N)c4)c3)N=C(N)c3c(F)cccc32)cc(C)c1=O (stereo not given)
IC50 (Beta-secretase 1 [1]): 1.84 nM | IC50 (Beta-secretase 1 [2]): 8.26 nM

NC1=N[C@@](c2cccc(-c3cncnc3)c2)(c2ccnc(C(F)F)c2)c2cc(F)cc(F)c21
IC50 (Beta-secretase 1 [1]): 8.64 nM | IC50 (Beta-secretase 1 [2]): 36.2 nM | Ki (Beta-secretase 2): 770 nM | IC50 (Beta-secretase 1 [3]): 53 nM

CCn1cc(C2(c3cccc(-c4cncc(F)c4)c3)N=C(N)c3c(F)cccc32)cc(C)c1=O (stereo not given)
IC50 (Beta-secretase 1 [1]): 3.98 nM

NC1=NC(c2cccc(-c3cncnc3)c2)(c2ccnc(C(F)(F)F)c2)c2cccc(F)c21 (stereo not given)
IC50 (Beta-secretase 1 [1]): 43.1 nM | IC50 (Beta-secretase 1 [3]): 436 nM

Cc1cc(C2(c3cccc(-c4cncnc4)c3)N=C(N)c3c(F)cccc32)cn(C)c1=O (stereo not given)
IC50 (Beta-secretase 1 [1]): 11.4 nM | IC50 (Beta-secretase 1 [2]): 60.8 nM | Ki (Beta-secretase 2): 740 nM | IC50 (Beta-secretase 1 [3]): 30 nM

CC#Cc1cncc(-c2cccc(C3(c4ccnc(C(F)F)c4)N=C(N)c4c(F)cccc43)c2)c1 (stereo not given)
IC50 (Beta-secretase 1 [1]): 2.97 nM | IC50 (Beta-secretase 1 [2]): 6.49 nM

NC1=N[C@](c2ccnc(C(F)(F)F)c2)(c2ccc(F)c(-c3cncnc3)c2)c2cccc(F)c21
Drug uptake(free) (Brain [4]): 406 nM | Cp(f) (Plasma [5]): 795 nM | Activity (Mus musculus [6]): 114 nM | Activity (Mus musculus [7]): Active | Activity (Mus musculus [8]): Active | fraction unbound [9]: 0.025 | fraction unbound [10]: 0.044 | Activity (Mus musculus [11]): 50% | IC50 (Beta-secretase 1 [3]): 204 nM | logD (physchem [12]): 3 | hepatocyte CLint (in vitro [13]): 10 µL/min/1e6 cells | Papp A→B at 1 h, 10 µM (in vitro [14]): 30 ×10⁻⁶ cm/s

COc1cc(C2(c3cccc(-c4cncnc4)c3)N=C(N)c3c(F)cccc32)ccn1 (stereo not given)
IC50 (Beta-secretase 1 [1]): 21.5 nM

NC1=NC(c2ccnc(C(F)(F)F)c2)(c2ccc(F)c(-c3cncnc3)c2)c2cccc(F)c21 (racemic)
logD (physchem [12]): 3 | pKa (physchem [15]): 6.4 | hepatocyte CLint (in vitro [13]): 6.9 µL/min/1e6 cells | Papp A→B at 1 h, 10 µM (in vitro [14]): 25 ×10⁻⁶ cm/s

NC1=NC(c2cccc(-c3cncnc3)c2)(c2ccnc(C(F)F)c2)c2cccc(F)c21 (racemic)
logD (physchem [12]): 2 | pKa (physchem [15]): 6.8 | hepatocyte CLint (in vitro [13]): 27.5 µL/min/1e6 cells

Cc1cc(C2(c3cccc(-c4cncnc4)c3)N=C(N)c3c(F)cccc32)cc(C)n1 (stereo not given)
IC50 (Beta-secretase 1 [1]): 10.7 nM | IC50 (Beta-secretase 1 [2]): 1380 nM

CCn1cc([C@]2(c3cccc(NC(=O)c4ccc(Cl)cn4)c3)N=C(N)c3c(F)cccc32)cc(C)c1=O
IC50 (Beta-secretase 1 [1]): 0.15 nM | IC50 (Beta-secretase 1 [2]): 2.49 nM

N#Cc1cncc(-c2cccc(C3(c4ccnc(C(F)(F)F)c4)N=C(N)c4c(F)cccc43)c2)c1 (stereo not given)
IC50 (Beta-secretase 1 [1]): 29.9 nM | IC50 (Beta-secretase 1 [2]): 253 nM | IC50 [16]: 1700 nM | logD (physchem [12]): 3.7 | hepatocyte CLint (in vitro [13]): 5.2 µL/min/1e6 cells | efflux ratio at 1 h, 10 µM (in vitro [17]): 0.8 | Papp A→B at 1 h, 10 µM (in vitro [14]): 16 ×10⁻⁶ cm/s

NC1=N[C@@](c2cccc(-c3cncnc3)c2)(c2ccnc(C(F)F)c2)c2cccc(F)c21 [AZD-3839]
K(p,uu,brain) [18]: 0.7 | Drug uptake(free) (Brain [19]): 119 nM | Cp(f) (Plasma [20]): 170 nM | Activity (Mus musculus [21]): Active | Activity (Mus musculus [22]): Active | fraction unbound [23]: 0.079 | fraction unbound [24]: 0.027 | Activity (Mus musculus [25]): 31% | Ki (Beta-secretase 2): 370 nM | IC50 (Beta-secretase 1 [3]): 51 nM | half-life (in vivo [26]): 1.5 h | bioavailability (in vivo [27]): 73% | logD (physchem [12]): 2 | pKa (physchem [15]): 7.1 | hepatocyte CLint (in vitro [13]): 20.9 µL/min/1e6 cells

CCn1cc([C@]2(c3cccc(C#CC4CC4)c3)N=C(N)c3c(F)cccc32)cc(C)c1=O
IC50 (Beta-secretase 1 [1]): 0.76 nM | IC50 (Beta-secretase 1 [2]): 6.08 nM | Ki (Beta-secretase 2): 78 nM | IC50 (Beta-secretase 1 [3]): 3.4 nM

NC1=NC(c2ccncc2)(c2cccc(-c3cncc(F)c3)c2)c2cccc(F)c21 (stereo not given)
IC50 (Beta-secretase 1 [1]): 25.6 nM | IC50 (Beta-secretase 1 [2]): 137 nM

COc1c(C)cc(C2(c3cccc(-c4cncnc4)c3)N=C(N)c3c(F)cccc32)cc1C#N (stereo not given)
IC50 (Beta-secretase 1 [1]): 3.4 nM | logD (physchem [12]): 3.1 | hepatocyte CLint (in vitro [13]): 30.9 µL/min/1e6 cells | Papp A→B at 1 h, 10 µM (in vitro [14]): 23 ×10⁻⁶ cm/s

CCn1cc(C2(c3cccc(-c4cncnc4)c3)N=C(N)c3c(F)cccc32)cc(C)c1=O (stereo not given)
IC50 (Beta-secretase 1 [1]): 9.09 nM | IC50 (Beta-secretase 1 [2]): 15.5 nM

COc1c(C)cc(C2(c3cccc(-c4cncnc4)c3)N=C(N)c3c(F)cccc32)nc1C (stereo not given)
IC50 (Beta-secretase 1 [1]): 2.92 nM | Ki (Beta-secretase 2): 1700 nM | IC50 (Beta-secretase 1 [3]): 40 nM

NC1=NC(c2ccncc2)(c2cccc(-c3cncnc3)c2)c2cccc(F)c21 (racemic)
IC50 (Beta-secretase 1 [1]): 11.4 nM | IC50 (Beta-secretase 1 [2]): 158 nM

NC1=N[C@](c2ccncc2)(c2cccc(-c3cncnc3)c2)c2cccc(F)c21
IC50 (Beta-secretase 1 [1]): 8.25 nM | IC50 (Beta-secretase 1 [2]): 124 nM | Ki (Beta-secretase 2): 790 nM | IC50 (Beta-secretase 1 [3]): 68 nM

NC1=NC(c2ccncc2)(c2cccc(-c3cncnc3)c2)c2ccccc21 (stereo not given)
IC50 (Beta-secretase 1 [1]): 90.3 nM | IC50 [16]: 16000 nM | logD (physchem [12]): 0.7 | pKa (physchem [15]): 8.4 | hepatocyte CLint (in vitro [13]): 11.7 µL/min/1e6 cells | efflux ratio at 1 h, 10 µM (in vitro [17]): 12 | Papp A→B at 1 h, 10 µM (in vitro [14]): 3.4 ×10⁻⁶ cm/s
